The target of the experiment is GST-tagged truncated human mutant G2019S LRRK2 (Homo sapiens (Human), UniProt Q5S007, G2019S). Description: LRRK2 G2019S Km ATP LanthaScreen assay. Type of experiment: biochemical. As to conditions: G2019S LRRK2, 134 μM ATP (Km ATP), LRRKtide substrate; for IC50: read-out: LRRK2 pIC50 (converted). An outline of the steps: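 Ten-point compound series (highest 9.99 μM in DMSO) preincubated 15 min with 1.25 nM GST-tagged truncated human LRRK2 G2019S, then 90 min reaction at ambient temperature with 134 μM ATP (Km) and fluorescein-labelled LRRKtide, pH 8.5. Phosphorylation read as 520/495 nm emission ratio via Tb-labelled antibody; IC50 from 4P logistic regression.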
GST-tagged truncated human mutant G2019S LRRK2, sequence (Q5S007 970-2527 G2019S): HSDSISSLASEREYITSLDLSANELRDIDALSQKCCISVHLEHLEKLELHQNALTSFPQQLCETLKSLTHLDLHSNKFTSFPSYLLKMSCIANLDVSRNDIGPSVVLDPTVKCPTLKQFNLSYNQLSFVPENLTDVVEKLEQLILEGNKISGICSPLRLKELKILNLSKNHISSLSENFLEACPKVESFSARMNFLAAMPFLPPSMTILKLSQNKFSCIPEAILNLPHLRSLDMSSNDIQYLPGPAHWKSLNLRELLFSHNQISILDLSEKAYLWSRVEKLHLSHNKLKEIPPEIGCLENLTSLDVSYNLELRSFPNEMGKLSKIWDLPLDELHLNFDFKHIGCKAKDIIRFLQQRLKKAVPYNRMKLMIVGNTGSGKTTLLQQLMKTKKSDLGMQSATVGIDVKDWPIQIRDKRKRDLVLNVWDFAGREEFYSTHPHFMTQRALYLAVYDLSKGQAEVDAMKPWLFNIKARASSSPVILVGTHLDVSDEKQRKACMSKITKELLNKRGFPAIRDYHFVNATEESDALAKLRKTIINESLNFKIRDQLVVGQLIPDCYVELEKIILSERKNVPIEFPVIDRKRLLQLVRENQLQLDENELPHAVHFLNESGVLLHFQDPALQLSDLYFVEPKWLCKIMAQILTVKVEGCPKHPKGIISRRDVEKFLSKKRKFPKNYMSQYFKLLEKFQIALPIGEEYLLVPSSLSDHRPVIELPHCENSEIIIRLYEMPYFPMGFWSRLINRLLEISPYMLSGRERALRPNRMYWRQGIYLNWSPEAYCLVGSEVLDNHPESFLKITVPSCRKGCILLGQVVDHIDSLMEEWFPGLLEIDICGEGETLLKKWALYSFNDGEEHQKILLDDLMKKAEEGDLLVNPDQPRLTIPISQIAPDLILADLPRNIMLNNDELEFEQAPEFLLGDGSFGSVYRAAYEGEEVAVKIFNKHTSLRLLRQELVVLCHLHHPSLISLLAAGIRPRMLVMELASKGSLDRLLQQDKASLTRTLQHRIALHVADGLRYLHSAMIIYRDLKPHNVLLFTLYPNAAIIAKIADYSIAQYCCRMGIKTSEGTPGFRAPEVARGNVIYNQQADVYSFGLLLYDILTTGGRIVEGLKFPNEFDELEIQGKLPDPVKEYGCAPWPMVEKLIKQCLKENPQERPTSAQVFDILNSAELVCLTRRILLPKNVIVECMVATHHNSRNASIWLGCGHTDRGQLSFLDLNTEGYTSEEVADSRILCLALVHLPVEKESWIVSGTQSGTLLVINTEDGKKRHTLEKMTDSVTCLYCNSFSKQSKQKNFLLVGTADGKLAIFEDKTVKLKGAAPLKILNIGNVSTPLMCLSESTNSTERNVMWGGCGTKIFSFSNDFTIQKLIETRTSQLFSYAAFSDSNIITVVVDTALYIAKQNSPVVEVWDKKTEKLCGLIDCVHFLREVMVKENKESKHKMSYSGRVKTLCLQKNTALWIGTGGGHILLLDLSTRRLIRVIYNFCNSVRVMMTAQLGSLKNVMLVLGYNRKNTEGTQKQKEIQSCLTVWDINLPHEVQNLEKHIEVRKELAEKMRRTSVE

As for `Cc1nn(C2CCC2)c2c1OC[C@H]1CN(C[C@@H]1C)c1nc(ncc1C(F)(F)F)N2` (single isomer, unassigned) [Ex-20.1, (6S,7S)- or (6R,7R)-1-Cyclobutyl-3,7-dimethyl-11-(trifluoromethyl)-1,5,6,7,8,15-hexahydro-10,14-(azeno)-6,9-methanopyrazolo[4,3-b][1]oxa[4,6,10]triazacyclotetradecine], the “LRRK2 pIC50” value is given as 5.84. Same read-out and setting: for `FC(F)(F)c1cnc2nc1N[C@@H]1COC[C@H]1COc1ccnc(Cl)c1N2` [Ex-15.5, (3aS,16aS)-11-chloro-6-(trifluoromethyl)-3a,4,16,16a-tetrahydro-1H,3H,10H-5,9-(azeno)furo[3,4-k]pyrido[4,3-b][1]oxa[4,6,10]triazacyclotridecine] the value was 9.90; for `CCOC(=O)Cc1nn(C2CC2)c2c1OC[C@@H]1COC[C@H]1Nc1nc(ncc1C(F)(F)F)N2` [Ex-2.67, ethyl 2-((10aS,13aS)-3-cyclopropyl-8-(trifluoromethyl)-3,4,10a,11,13a,14-hexahydro-10H,13H-5,9-(azeno)furo[3,4-k]pyrazolo[4,3-b][1]oxa[4,6,10]triazacyclotridecin-1-yl)acetate], 9.45. On the same count and under the same terms, under `Cc1nn(C)c2c1OCC1(CNc3nc(ncc3C(F)(F)F)N2)CC12CCOCC2` (single isomer, unassigned) [Ex-2.16, (R)- or (S)-1″,3″-dimethyl-10″- (trifluoromethyl)-1″,2,3,5,6,7″,8″,14″. octahydro-5″H-dispiro[pyran-4,1′-cyclopropane-2′,6″- [9,13](azeno)pyrazolo[4,3-b][1]oxa[4,6,10]triazacyclotridecine]] stands 7.93; under `Cn1nc(C2CC2)c2c1OCC1CCC1Nc1nc(ncc1C(F)(F)F)N2` [Ex-1.8, (10aR,12aS)- or (10aS,12aR)-3-cyclopropyl-1-methyl-8-(trifluoromethyl)-1,4,10,10a,11,12,12a,13-octahydro-5,9-(azeno)cyclobuta[k]pyrazolo-[3,4-b][1]oxa[4,6,10]triazacyclo-tridecine], 5.94. The same measure, in the same setting: under `Cc1nn(C2CC2)c2c1OC[C@@H]1CC[C@H]1Oc1nc(ncc1C(F)(F)F)N2` [Ex-14.1, (10aR,13aS)- or (10aS,13aR)-3-Cyclopropyl-1-methyl-8-(trifluoromethyl)-3,4,10a,11,12a,13-hexahydro-12H-5,9-(azeno)cyclobuta[k]pyrazolo[4,3-b][1,10]dioxa[4,6]diazacyclotridecine] stands 8.78. Regarding `COC1CC(n2nc(C)c3c2Nc2ncc(C(F)(F)F)c(n2)NC2COCC2CO3)C1` (single isomer, unassigned) [Ex-2.32, (10aS,13aS)- or (10aR,13aR)-3-((1R,3S)-3-methoxycyclobutyl)-1-methyl-8-(trifluoromethyl)-3,4,10a,11,13a,14-hexahydro-10H,13H-5,9-(azeno)furo[3,4-k]pyrazolo[4,3-b][1]oxa[4,6,10]triazacyclotridecine], the IC50 was 0.0912 nM. In the case of `Cc1nn(C2CCC2)c2c1OC[C@@H]1CC[C@H]1Nc1nc(ncc1C(F)(F)F)N2` [Ex-2.4, (10aR,12aR)- or (10aS,12aS)-3-Cyclobutyl-1-methyl-8-(trifluoromethyl)-3,4,10,10a,11,12,12a,13-octahydro-5,9-(azeno)cyclobuta[k]pyrazolo[4,3-b][1]oxa[4,6,10]triazacyclotridecine], the “LRRK2 pIC50” value worked out at 6.66.

As for `O[C@H]1CC[C@@H]1n1nc(C2CC2)c2c1OC[C@@H]1COC[C@H]1Nc1nc(ncc1C(F)(F)F)N2` (single isomer, unassigned) [Ex-6.8, (1R,2R)- or (1S,2S)-2-((10aS,13aS)-3-cyclopropyl-8-(trifluoromethyl)-10a,11,13a,14-tetrahydro-10H,13H-5,9-(azeno)furo[3,4-k]pyrazolo[3,4-b][1]oxa[4,6,10]triazacyclotridecin-1(4H)-yl)cyclobutan-1-ol], the “LRRK2 pIC50” value was greater than 10.09.

On to `Cc1nn(C2CCC2)c2c1CC[C@@H]1COC[C@H]1Nc1nc(ncc1C(F)(F)F)N2` (single isomer, unassigned) [Ex-12.2, (10aS,13aS)- or (10aR,13aR)-3-Cyclobutyl-1-methyl-8-(trifluoromethyl)-3,4,10a,11,13,13a,14,15-octahydro-10H-5,9-(azeno)furo[3,4-h]pyrazolo[4,3-l][1,3,7]triazacyclotridecine], for which the IC50 is 0.24 nM.

Take `CC(C)c1nn(C(C)(C)C#N)c2c1Nc1ncc(Cl)c(n1)N[C@@H]1COC[C@H]1CO2` [Ex-1.16, 2-((10aS,13aS)-8-chloro-3-isopropyl-10a,11,13a,14-tetrahydro-10H,13H-5,9-(azeno)furo[3,4-k]pyrazolo[3,4-b][1]oxa[4,6,10]triazacyclotridecin-1(4H)-yl)-2-methylpropanenitrile]: the “LRRK2 pIC50” value is listed as 9.76. Still for that read-out and setting: for “(R)- or (S)-1-cyclopropyl-3,7-dimethyl-10- (trifluoromethyl)-1,5,6,7,8,14-hexahydro- 9,13-(azeno)pyrazolo[4,3- b][1]oxa[4,6,10]triazacyclotridecine [Ex-2.20]” the value was 6.71. In the case of `Cc1nn(C2CCC2)c2c1OCC[C@@H]1COCCN1c1nc(ncc1C(F)(F)F)N2` (single isomer, unassigned) [Ex-21.3, (R) or (S)-3-cyclobutyl-1-methyl-8-(trifluoromethyl)-3,4,11,12,14,14a,15,16-octahydro-5,9-(azeno)[1,4]oxazino[4,3-j]pyrazolo[4,3-b][1]oxa[4,6,10]triazacyclotridecine], the IC50 is 22.9 nM.

Regarding `N#CC1CC1c1nn(C2CCC2)c2c1OC[C@@H]1COC[C@H]1Nc1nc(ncc1C(F)(F)F)N2` (single isomer, unassigned) [Ex-2.50, (1R,2R)- or (1S,2S)-2-((10aS,13aS)-3-cyclobutyl-8-(trifluoromethyl)-3,4,10a,11,13a,14-hexahydro-10H,13H-5,9-(azeno)furo[3,4-k]pyrazolo[4,3-b][1]oxa[4,6,10]triazacyclotridecin-1-yl)cyclopropane-1-carbonitrile], the “LRRK2 pIC50” value is on record as 9.77. On the same count and under the same terms, for `Cc1nn(C)c2c1OCC1(CNc3nc(ncc3C(F)(F)F)N2)CC12CCOCC2` (single isomer, unassigned) [Ex-2.17, (R)- or (S)-1″,3″-dimethyl-10″- (trifluoromethyl)-1″,2,3,5,6,7″,8″,14″- octahydro-5″H-dispiro[pyran-4,1′-cyclopropane-2′,6″- [9,13](azeno)pyrazolo[4,3-b][1]oxa[4,6,10]triazacyclotridecine]] the value was 8.42. Take `Cc1nn(C2CCC2)c2c1OC1COC[C@H]1CNc1nc(ncc1C(F)(F)F)N2` (stereo partly drawn) [Ex-2.79, (11aR,14aR)-3-cyclobutyl-1-methyl-8-(trifluoromethyl)-3,4,10,11,11a,12,14,14a-octahydro-5,9-(azeno)furo[3,4-1]pyrazolo [4,3-b][1]oxa[4,6,10]triazacyclotridecine (11aS,14aS)-3-cyclobutyl-1-methyl-8-(trifluoromethyl)-3,4,10,11,11a,12,14,14a-octahydro-5,9-(azeno)furo[3,4-1]pyrazolo[4,3-b][1]oxa[4,6,10]triazacyclotridecine]: the “LRRK2 pIC50” value turned out to be 6.87.

On to `CC(C)c1nn(C(C)(C)C#N)c2c1Nc1ncc(C(F)(F)F)c(n1)N[C@@H]1COC[C@H]1CO2` [Ex-1.14, 2-((10aS,13aS)-3-isopropyl-8-(trifluoromethyl)-10a,11,13a,14-tetrahydro-10H,13H-5,9-(azeno)furo[3,4-k]pyrazolo[3,4-b][1]oxa[4,6,10]triazacyclotridecin-1(4H)-yl)-2-methylpropanenitrile], for which the “LRRK2 pIC50” value was 8.66. The same measure, in the same setting: for `Cc1nn(C2CC2)c2c1OC[C@H]1CC[C@@H]1Oc1nc(ncc1C(F)(F)F)N2` [Ex-14.2, (10aR,13aS)- or (10aS,13aR)-3-Cyclopropyl-1-methyl-8-(trifluoromethyl)-3,4,10a,11,12a,13-hexahydro-12H-5,9-(azeno)cyclobuta[k]pyrazolo[4,3-b][1,10]dioxa[4,6]diazacyclotridecine] the value was 5.16; for `Cc1nn(C2CCC2)c2c1OC[C@@H]1CC[C@H]1Nc1cc(ncc1Cl)N2` [Ex-13.3, (10aR,12aR)-8-chloro-3-cyclobutyl-1-methyl-3,4,10,10a,11,12,12a,13-octahydro-5,9-(metheno)cyclobuta[k]pyrazolo[4,3-b][1]oxa[4,6,10]triazacyclotridecine], greater than 10.09. The same measure, in the same setting: for `Cc1nn(C(C)C)c2c1OC[C@@H]1COC[C@H]1Nc1nc(ncc1Cl)N2` [Ex-2.54, (10aS,13aS)-8-chloro-3-isopropyl-1-methyl-3,4,10a, 11,13a,14--hexahydro-10H,13H-5,9-(azeno)furo[3,4-k]pyrazolo[4,3-b][1]oxa[4,6,10]triazacyclotridecine] the value was 8.57; for `Cc1nn(C)c2c1OCC1CC[C@H]1Nc1nc(ncc1C(F)(F)F)N2` (stereo partly drawn) [Ex-2.10, (10aR,12aR)- or (10aS,12aS)-1,3-dimethyl-8-(trifluoromethyl)-3,4,10,10a,11,12,12a,13-octahydro-5,9-(azeno)cyclobuta[k]pyrazolo[4,3-b][1]oxa[4,6,10]triazacyclotridecine], greater than 10.09. On the same count and under the same terms, under “(10aR,12aR)-8-chloro-3-methyl-1- (trifluoromethyl)-3,4,10,10a,11,12,12a,13- octahydro-5,9- (azeno)cyclobuta[k]pyrazolo[4,3- b][1]oxa[4,6,10]triazacyclotridecine [Ex-2.76]” stands 9.47.
